From patent US20080057531A1, “SYSTEMS, KITS, AND METHODS FOR DETECTING CARIOGENIC BACTERIA AND ASSESSING RISK OF DENTAL CARIES” (Oregon Health and Science University, priority 2006, published 2008)
Where a SMILES comes first, the peptide text is derived from it. Bridges are numbered along the chain shown (N, C = ends). [ ]: non-standard residue; d: D form. The star is where a group is joined. Ileψ(thiazoline)Cys = CC[C@H](C)[C@H](N)C1=N[C@H](C(=O)*)CS1; dOrn = NCCC[C@@H](N)C(=O)O

Key:
[1] = test system: non-cariogenic streptococci, such as S. sanguis; assay: bacitracin selection in suspended solution format, growth measured by ATP luminescence; type: cell-based, Streptococcus sanguis; conditions: 0.5-1.0 U/ml bacitracin in BHI medium, FIG. 3
From the text: (§1) FIG. 3 illustrates the relationship between bacitracin concentration and effect on growth of several oral streptococci species as measured by ATP luminescence.
(§2) With reference to FIG. 1, the linear portion of the curves in each graph illustrates a range of measurements that can be used to accurately correlate ATP concentration and relative light units. FIG. 2 illustrates that the relationship of ATP content and viable cell number is linear during exponential phase of growth. However, ATP content becomes diminished during transition from exponential phase to […] of growth. […] Cultures tested include Streptococcus mutans ATCC 700610, Streptococcus mutans A TCC 25175, Streptococcus sanguis and Streptococcus sobrinus. Overnight cultures were prepared using BHI medium and then inoculum was transferred to fresh BHI medium in the presence (0.5 U/ml-10 U/ml) or absence of bacitracin. […] Thus, the presence of sucrose may represent a further improvement of the current CariScreen device, by 1) extending the effectiveness of bacitracin selection and by 2) increasing the likelihood or allowing all oral microorganisms to remain in an exponential phase of growth, which based on FIG. 2, represents an accurate determinant of bacterial number as measured by ATP.

cariogenic S. mutans = assay: as above; type: cell-based, Streptococcus mutans; conditions: 0.5-1.0 U/ml bacitracin in BHI medium, FIG. 3
From the text: as §1, §2

S. sobrinus = assay: as above; type: cell-based, Streptococcus sobrinus; conditions: 0.5-1.0 U/ml bacitracin in BHI medium, FIG. 3
From the text: as §1, §2

S. mutans in saliva = assay: bacitracin selection for S. mutans in pediatric saliva samples incubated in BHI media; type: cell-based, Streptococcus mutans; conditions: four hours of bacitracin treatment, 7% at time 0, FIG. 5
From the text: FIG. 5 illustrates the bacitracin-based selection for the highly cariogenic S. mutans species in the presence of non-mutans streptococci.
This example describes a clinical study, examining the application of bacitracin selection (and sucrose growth accelerant) on oral micro-organisms found in dental plaque and saliva. This study examines up to 50 patients, with 3-4 plaque specimens and one saliva specimen per patient, and assesses the correlation between ATP content (measured by CariScreen meter and Veritas luminometer), wet weight of plaque specimens, total protein measurement, and viable bacterial numbers (total bacteria, total oral streptococci, Streptococcus mutans, and total lactobacilli as assessed with the use of plating on blood agar, mitis-salivarius agar, mitis-salivarius agar supplemented with bacitracin ([…] w/v), and Rogasa agar, respectively). […] With continued reference to FIG. 5, with four hours of bacitracin treatment the percentage of S. mutans in saliva went from 7% at time 0 to 75%. With reference to FIG. 6, a subject's saliva was added to BHI media±bacitracin (0.5 units/ml), and then incubated at 37° C. in a 5% carbon dioxide atmosphere. At times 0, 1, 2, and 4 hours samples were measured for ATP-driven bioluminescence and plated onto blood agar plates to measure total bacteria numbers. […]

[2] = test system: oral streptococci, including cariogenic S. mutans and non-cariogenic S. salivarius and S. sanguis; assay: sucrose as accelerant of growth of oral streptococci, suspended bacteria; type: cell-based; conditions: varying sucrose concentrations, FIG. 4
From the text: (§3) FIG. 4 illustrates the effect of sucrose as a potential accelerant of growth of four different oral streptococci, increase of four different streptococci strains, including measurement of adherent bacteria, in response to varying sucrose concentrations.
as §2

S. mutans = assay: sucrose effect on adherence of bacteria in a biofilm on the culture vessel; type: cell-based, Streptococcus mutans; conditions: sucrose especially at 0.5-1%, FIG. 4
From the text: as §3, §2

Compound | effect on growth [1] | effect on growth (cariogenic S. mutans) | effect on growth (S. sobrinus) | percentage of S. mutans in saliva (S. mutans in saliva) [%] | effect on growth phase and yield [2] | effect on adherence in a biofilm coating the plastic surface of the culture vessel (S. mutans)
CC[C@H](C)[C@H](N)C1=N[C@H](C(=O)N[C@@H](CC(C)C)C(=O)N[C@H](CCC(=O)O)C(=O)N[C@H](C(=O)N[C@H]2CCCCNC(=O)[C@H](CC(N)=O)NC(=O)[C@@H](CC(=O)O)NC(=O)[C@H](Cc3cnc[nH]3)NC(=O)[C@@H](Cc3ccccc3)NC(=O)[C@H]([C@@H](C)CC)NC(=O)[C@@H](CCCN)NC2=O)[C@@H](C)CC)CS1 [bacitracin] ({Ileψ(thiazoline)Cys}-L[dE]IK[dOrn]I[dF]H[dD]N; lactam 4-C) | greatly inhibit | allows considerable break-through of growth | allows considerable break-through of growth | 75 | – | –
OC[C@H]1O[C@@](CO)(O[C@H]2O[C@H](CO)[C@@H](O)[C@H](O)[C@H]2O)[C@@H](O)[C@@H]1O [sucrose] | – | – | – | – | extend the exponential phase of growth and promote increased yields at saturation | promote the increased adherance
